Like-named read-outs stand apart in the source and are kept apart here.
Biological target: T1, sGC enzyme (Homo sapiens, UniProt Q02108+Q02153)
T1 construct: incorporated into these cells detect cGMP formed by the compounds stimulating the sGC enzyme; host or cells: HEK293 cells stably expressing GloSensor 40F cGMP biosensor
T1 sequence (Q02153 1-619): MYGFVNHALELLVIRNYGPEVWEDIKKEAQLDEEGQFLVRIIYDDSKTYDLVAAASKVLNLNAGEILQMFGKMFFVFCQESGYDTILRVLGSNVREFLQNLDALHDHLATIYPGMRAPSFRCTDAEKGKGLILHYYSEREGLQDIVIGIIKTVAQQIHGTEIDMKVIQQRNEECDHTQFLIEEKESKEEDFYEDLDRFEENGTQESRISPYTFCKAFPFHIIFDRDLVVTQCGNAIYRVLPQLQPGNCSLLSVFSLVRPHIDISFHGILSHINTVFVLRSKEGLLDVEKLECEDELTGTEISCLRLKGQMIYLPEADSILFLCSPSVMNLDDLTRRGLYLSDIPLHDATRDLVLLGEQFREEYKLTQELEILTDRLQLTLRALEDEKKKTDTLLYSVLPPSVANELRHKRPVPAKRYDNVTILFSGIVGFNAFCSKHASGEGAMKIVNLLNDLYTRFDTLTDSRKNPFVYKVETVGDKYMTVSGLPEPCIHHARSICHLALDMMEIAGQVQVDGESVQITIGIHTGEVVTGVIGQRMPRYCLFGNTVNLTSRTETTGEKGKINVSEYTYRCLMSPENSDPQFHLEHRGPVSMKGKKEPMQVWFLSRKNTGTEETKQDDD
T1 sequence (Q02108 1-690): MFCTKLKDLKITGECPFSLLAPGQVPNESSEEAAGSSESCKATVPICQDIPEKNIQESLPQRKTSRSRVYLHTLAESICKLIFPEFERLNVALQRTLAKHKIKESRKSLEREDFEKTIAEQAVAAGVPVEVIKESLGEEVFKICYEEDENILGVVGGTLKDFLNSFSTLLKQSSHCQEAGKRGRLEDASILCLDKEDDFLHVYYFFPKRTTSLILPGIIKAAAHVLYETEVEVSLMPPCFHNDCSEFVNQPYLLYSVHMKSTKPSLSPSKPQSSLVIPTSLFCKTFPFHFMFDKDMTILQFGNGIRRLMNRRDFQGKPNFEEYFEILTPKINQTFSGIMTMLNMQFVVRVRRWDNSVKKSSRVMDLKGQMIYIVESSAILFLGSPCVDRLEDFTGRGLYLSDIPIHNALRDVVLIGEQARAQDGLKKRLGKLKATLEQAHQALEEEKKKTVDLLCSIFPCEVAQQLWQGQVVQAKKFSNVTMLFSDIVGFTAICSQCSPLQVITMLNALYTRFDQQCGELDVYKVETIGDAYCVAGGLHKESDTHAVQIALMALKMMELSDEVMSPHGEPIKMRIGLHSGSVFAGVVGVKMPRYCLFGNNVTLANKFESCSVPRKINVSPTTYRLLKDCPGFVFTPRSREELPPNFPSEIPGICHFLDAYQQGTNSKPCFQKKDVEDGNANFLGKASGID
Assay: cGMP GloSensor cell-based assay, 384-well format
Details: HEK293 cells expressing GloSensor 40F cGMP, 10 μM DETA-NONOate, normalized to 30 μM Compound Y
Text: Human embryonic kidney cells (HEK293) cells expressing GloSensor™ 40F cGMP (Part No: CS182801, Promega) were used to evaluate the activity of test compounds. The luminescent biosensors (engineered luciferase) that were incorporated into these cells detect cGMP formed by the compounds stimulating the sGC enzyme and emit luminescence.
cGMP GloSensor cells were maintained in Dulbecco's Modification of Eagle's Medium (DMEM) supplemented with fetal bovine serum (FBS, 10% final) and hygromycine (200 ug/ml). […] Cells were incubated overnight at 37° C. in a humidified chamber with 5% CO2. The next day, medium was removed and cells were replaced with 40 ul/well of GloSensor™, 2 mM (Promega Cat No E1291). Cells were treated for 90 minutes at 25° C. to allow the substrate to equilibrate in the cells. […] For endpoint SAR screening, data were collected after 55 min incubation at room temperature.
Data were fit using a 4-parameter fit (log(agonist) vs. response—variable slope) using GraphPad Prism Software v.5. n=2 for all compounds. […] Compounds failing to elicit a minimum response of 50% are reported as >30 μM or ND.

[1] = compounds in Table IA, read-out: Glo-sensor AbsEC50
[2] = compounds in Table IB, read-out: Glo-sensor Abs EC50

Compound | EC50 [1] [nM] | EC50 [2] [nM]
FC(F)(F)c1n[nH]c(-c2nn(CC(F)(F)C(F)(F)F)c3ncccc23)n1 [Compound I-19, 1-(2,2,3,3,3-Pentafluoropropyl)-3-(3-(trifluoromethyl)-1H-1,2,4-triazol-5-yl)-1H-pyrazolo[3,4-b]pyridine] | > 1000 | –
Fc1ccccc1Cn1nc(-c2nc(C3CN(CC(F)(F)F)C3)n[nH]2)c2cccnc21 [Compound I-95, 1-(2-Fluorobenzyl)-3-(3-(1-(2,2,2-trifluoroethyl)azetidin-3-yl)-1H-1,2,4-triazol-5-yl)-1H-pyrazolo[3,4-b]pyridine] | 100 to 1000 | –
Cc1ncc(Cc2nc(-c3nc(C(F)(F)F)n[nH]3)n3cc(F)ccc23)cn1 [Compound I-23, 6-Fluoro-1-((2-methylpyrimidin-5-yl)methyl)-3-(3-(trifluoromethyl)-1H-1,2,4-triazol-5-yl)imidazo[1,5-a]pyridine pyridine] | – | 100 to 1000
Fc1ccccc1Cc1nc(-c2nc(C(F)(F)F)n[nH]2)n2ccncc12 [Compound I-44, 1-(2-Fluorobenzyl)-3-(3-(trifluoromethyl)-1H-1,2,4-triazol-5-yl)imidazo[1,5-a]pyrazine] | – | > 1000
FC(F)(F)c1n[nH]c(-c2nc(CCC(F)(F)C(F)(F)F)n3ncccc23)n1 [Compound I-18, 7-(3,3,4,4,4-pentafluorobutyl)-5-(3-(trifluoromethyl)-1H-1,2,4-triazol-5-yl)imidazo[1,5-b]pyridazine] | – | 100 to 1000
CC(=O)Nc1n[nH]c(-c2nn(Cc3ccccc3F)c3ncccc23)n1 [Compound I-103] | 100 to 1000 | –
Fc1cccc(Cc2nn(-c3nc(C(F)F)n[nH]3)c3cccnc23)c1 [Compound I-122, 1-(3-(Difluoromethyl)-1H-1,2,4-triazol-5-yl)-3-(3-fluorobenzyl)-1H-pyrazolo[4,3-b]pyridine] | 100 to 1000 | –
Fc1ccccc1Cn1nc(-c2nc(C(F)(F)F)n[nH]2)c2nccnc21 [Compound I-98, 1-(2-Fluorobenzyl)-3-(3-(trifluoromethyl)-1H-1,2,4-triazol-5-yl)-1H-pyrazolo[3,4-b]pyrazine] | > 1000 | –
Fc1cc(F)c2c(Cc3cncnc3)nc(-c3nc(C(F)(F)F)n[nH]3)n2c1 [Compound I-28, 6,8-Difluoro-1-(pyrimidin-5-ylmethyl)-3-(3-(trifluoromethyl)-1H-1,2,4-triazol-5-yl)imidazo[1,5-a]pyridine] | – | < 100
Fc1ccccc1Cn1nc(-c2nc(OCC(F)(F)F)n[nH]2)c2cccnc21 [Compound I-83, 1-(2-Fluorobenzyl)-3-(3-(2,2,2-trifluoroethoxy)-1H-1,2,4-triazol-5-yl)-1H-pyrazolo[3,4-b]pyridine] | > 1000 | –

Second part, the molecule after the results:

EC50 [1] [nM] | EC50 [2] [nM] | Compound
100 to 1000 | – | CN(C)c1n[nH]c(-c2nn(Cc3ccccc3F)c3ncccc23)n1 [Compound I-90]
100 to 1000 | – | COCCC(O)c1n[nH]c(-c2nn(Cc3ccccc3F)c3ncccc23)n1 (stereo not shown) [Compound I-116, 1-(5-(1-(2-fluorobenzyl)-1H-pyrazolo[3,4-b]pyridin-3-yl)-1H-1,2,4-triazol-3-yl)-3-methoxypropan-1-ol]
< 100 | – | FC(F)(F)c1n[nH]c(-c2nn(Cc3cncnc3)c3cc(Cl)ccc23)n1 [Compound I-16, 6-Chloro-1-(pyrimidin-5-ylmethyl)-3-(3-(trifluoromethyl)-1H-1,2,4-triazol-5-yl)-1H-indazole]
< 100 | – | FCc1n[nH]c(-c2nn(Cc3ccccc3F)c3ncccc23)n1 [Compound I-58, 1-(2-Fluorobenzyl)-3-(3-(fluoromethyl)-1H-1,2,4-triazol-5-yl)-1H-pyrazolo[3,4-b]pyridine]
< 100 | – | Fc1cccc(Cn2nc(-c3nc(C(F)F)n[nH]3)c3cccnc32)c1F [Compound I-67, 1-(2,3-Difluorobenzyl)-3-(3-(difluoromethyl)-1H-1,2,4-triazol-5-yl)-1H-pyrazolo[3,4-b]pyridine]
< 100 | – | Fc1ccc(F)c(Cn2nc(-c3nc(C(F)(F)F)n[nH]3)c3cccnc32)c1 [Compound I-14, 1-(2,5-Difluorobenzyl)-3-(3-(trifluoromethyl)-1H-1,2,4-triazol-5-yl)-1H-pyrazolo[3,4-b]pyridine]
